In patent US20260069643A1, “COMBINATIONS COMPRISING VITAMIN B2 AND LACTOBACILLUS RHAMNOSUS” (DSM IP Assets B.V., priority 2022, published 2026):

How the values were obtained:
Akkermansia muciniphila = assay: Long-term SHIME fermentation (colon model), 16S rRNA gene sequencing and flow cytometry: abundance of Akkermansia muciniphila; settings: FIG. 3, mucus of the transverse colon, end of three-week treatment vs end of control period (n=3), probiotic 1*10^10 CFU/reactor, vitamin B2 10 mg/day, significance p<0.05
Description: (§1) The typical reactor setup of the SHIME®, representing the gastrointestinal tract of the adult human, was described by Molly et al. (1993) Applied Microbiology and Biotechnology 39(2):254-258. Inoculum preparation, retention time, pH, temperature settings and reactor feed composition were previously described by Possemiers et al. (2004) FEMS Microbiol Ecol. 49(3):495-507. Compared to the typical setup of the SHIME, the long-term SHIME experiment used for this example included some adaptations. In one reactor, at first, the conditions of the stomach were simulated, before being changed by the computer to conditions simulating the small intestine. […]
(§2) Samples for quantitative 16S-targeted Illumina sequencing were collected 3×/week during the last week of the control and treatment period. […] The obtained high-resolution proportional phylogenetic information (i.e., proportional abundances (%)) was combined with an accurate quantification of total bacterial cells via flow cytometry to obtain quantitative data at phylum, family, and species level. […] Samples were analyzed on a BD Facsverse (BDBiosciences, Erembodegem, Belgium) using the high-flowrate setting and bacteria were separated from medium debris and signal noise by applying a threshold level of 200 on the SYTO channel. […]

Verrucomicrobia = assay: Long-term SHIME fermentation (colon model), 16S rRNA gene sequencing and flow cytometry: abundance of Verrucomicrobia; settings: FIG. 1, mucus of the transverse colon, end of three-week treatment vs end of control period (n=3), probiotic 1*10^10 CFU/reactor, vitamin B2 10 mg/day, significance p<0.05
Description: as §1, §2

Akkermansiaceae = assay: Long-term SHIME fermentation (colon model), 16S rRNA gene sequencing and flow cytometry: abundance of Akkermansiaceae; settings: FIG. 2, mucus of the transverse colon, end of three-week treatment vs end of control period (n=3), probiotic 1*10^10 CFU/reactor, vitamin B2 10 mg/day, significance p<0.05
Description: as §1, §2

Lactobacillus rhamnosus GG
did not significantly change: abundance of Akkermansia muciniphila compared to the control (Akkermansia muciniphila) | abundance of Verrucomicrobia compared to the control (Verrucomicrobia) | abundance of Akkermansiaceae compared to the control (Akkermansiaceae)
